Laboratory results from patent publication US20240156754A1, “POWDER COMPOSITION FOR DISINFECTION OF THE TEATS OF DAIRY ANIMALS” (KLARECO SRL, priority 2022, published 2024).
Where “and” joins values, the source holds several entries; their conditions need not be identical. Equal values may be shown once.

Assay: Accelerated stability test (30° C., 65% RH, 18 weeks)
Assay type: physicochemical
Protocol: Accelerated stability test has been carried what to assess the quality of a test item prepared as the one in Example 7 during time, under the influence of temperature and humidity.
The test was conducted at 30° C., at 65% of relative humidity (RH), for 18 weeks.
[…], assessing: the appearance of each container (the one containing chloramine T and the one containing the excipients), appearance of the products therein, the weight loss of the products and the content of chloramine T.
Appearance of the test item and of the packaging was assessed under the lab light. Weight loss was assessed weighing each sample at T0 (WT0) and at the final time point (WTx) and compared with their initial value (%) according to the following formula:
Weight loss from initial %=[(WT0−WTx)*100]/(WT0)
The content of chloramine T was assessed as described in Example 7.

[1] = T8 w, single determination, 30° C./65% RH
[2] = T18 w, single determination, 30° C./65% RH

- Available Chlorine, average (T0, average): 24.53 % w/w
- CHLORAMINE T anhydrous, average (T0, average): 97.46 % w/w
- CHLORAMINE T tri-hydrated, average (T0, average): 78.76 % w/w
- CHLORAMINE T anhydrous (T0, single determination): 97.61 % w/w and 97.31 % w/w
- CHLORAMINE T tri-hydrated (T0, single determination): 78.88 % w/w and 78.64 % w/w
- Available Chlorine (T0, single determination, chloramine T container of kit): 24.57 % w/w and 24.49 % w/w
- Available Chlorine, average (T8 w, average, 30° C./65% RH): 0.18 % w/w
- CHLORAMINE T anhydrous, average (T8 w, average, 30° C./65% RH): 0.73 % w/w
- CHLORAMINE T tri-hydrated, average (T8 w, average, 30° C./65% RH): 0.59 % w/w
- Available Chlorine [1]: 0.18 % w/w
- CHLORAMINE T anhydrous [1]: 0.73 % w/w
- CHLORAMINE T tri-hydrated [1]: 0.59 % w/w
- Tx/T0 %, Available Chlorine (T18 w versus T0, 30° C./65% RH): 100.4%
- Tx/T0 %, CHLORAMINE T anhydrous (T18 w versus T0, 30° C./65% RH): 100.4%
- Tx/T0 %, CHLORAMINE T tri-hydrated (T18 w versus T0, 30° C./65% RH): 100.4%
- Available Chlorine, average (T18 w, average, 30° C./65% RH): 24.62 % w/w
- CHLORAMINE T anhydrous, average (T18 w, average, 30° C./65% RH): 78.06 % w/w
- CHLORAMINE T tri-hydrated, average (T18 w, average, 30° C./65% RH): 97.83 % w/w
- Available Chlorine [2]: 24.59 % w/w and 24.86 % w/w
- CHLORAMINE T anhydrous [2]: 78.94 % w/w and 79.18 % w/w
- CHLORAMINE T tri-hydrated [2]: 97.68 % w/w and 97.99 % w/w
- content of active chloramine T compared to T0 (after 18 weeks at 30° C./65% RH): 100.4%
- variations in the appearance and weight (after 18 weeks at 30° C./65% RH, envelopes): no significant variations
- appearance of the product versus T0 (after 18 weeks at 30° C./65% RH, sealed container): did not present variations from T0
Structure (SMILES): Cc1ccc(S(=O)(=O)[N-]Cl)cc1.[Na+] [Chloramine T, chloramine T]
